The subject of test [1] is HGC-27. Kind of test: Antiproliferative activity against human HGC-27 cells assessed as inhibition of cell proliferation incubated for 72 hrs by MTT assay. The format is functional, cell-based. To be noted: HGC-27, 72 h.
A further test concerns SGC-7901. In words: Antiproliferative activity against human SGC-7901 cells assessed as inhibition of cell proliferation incubated for 72 hrs by MTT assay. The format is functional, cell-based. The conditions noted are these: SGC-7901, 72 h. On the technique in general: Tetrazolium assays rely on reduction of a dye to a coloured formazan, in cell work by metabolically active cells.

Test [2] concerns AGS. Kind of test: Induction of apoptosis in human AGS cells assessed as late apoptotic cells at 0.5 uM incubated for 48 hrs by annexin V-FITC and PI staining based flow cytometry analysis (reference value: 3.15%). The format is functional. (Flow cytometry measures light scatter and fluorescence of single cells or particles in a stream.)
For test [3], the system named is AGS. Kind of test: Induction of apoptosis in human AGS cells assessed as late apoptotic cells at 1 uM incubated for 48 hrs by annexin V-FITC and PI staining based flow cytometry analysis (reference value: 3.15%). Format: functional.
For test [4], the system named is AGS. In words: Induction of apoptosis in human AGS cells assessed as increase in cleaved PARP expression at 0.5 to 2 uM incubated overnight by Western blotting analysis. The format is functional, cell-based. To be noted: dose 0.5-2 µM. Background: In western blotting, separated proteins are transferred to a membrane and probed.
Test [5] has as its system HGC-27. Kind of test: Upregulation of BECN1 mRNA expression in human HGC-27 cells at 2 uM incubated for 24 hrs. The format is functional, cell-based.
Test [6] relates to HGC-27. In words: Upregulation of MAP1LC3B mRNA expression in human HGC-27 cells at 2 uM incubated for 24 hrs. Format: functional, cell-based.
Test [7] deals with HGC-27. Kind of test: Downregulation of Bcl-xl protein level in human HGC-27 cells at 0.5 to 2 uM by Western blotting analysis. The conditions noted are these: dose 0.5-2 µM. Format: functional, cell-based.
Test [8] deals with AGS. In words: Induction of autophagy in human AGS cells assessed as upregulation of LC3 II protein level at 0.5 to 2 uM incubated for 48 hrs by Western blotting analysis. Format: functional, cell-based. The conditions noted are these: dose 0.5-2 µM.

Molecules are shown by their SMILES. Activity calls are given as the source filed them. No cut-off for these calls is given here.

The results in this text go back to ChEMBL document CHEMBL6114967, “Design and synthesis of novel sulfur-substituted triptolide with the ability to induce autophagy through inhibition of SRSF1 expression” (Eur J Med Chem, 2025).

For `CC(C)[C@]12O[C@H]1[C@@H]1O[C@]13[C@]1(O[C@H]1C[C@H]1C4=C(CC[C@@]13C)C(=S)OC4)[C@@H]2O`, the IC50 in the test with HGC-27 [1] amounted to 330 nM; with SGC-7901, 1800 nM. For the same compound, the Activity in the test with AGS [2] is 7.89%; with AGS [3] it was 17%. In addition, the outcome with AGS [4], with HGC-27 [5], in the test on HGC-27 [6], in the test on HGC-27 [7] and in the test on AGS [8] was Active.

What is called IC50 is the concentration at which inhibition is half-maximal.
